The values below come from US12391698B2, “Substituted piperidines and piperazines and methods for the treatment of CNS disorders” (SUVEN LIFE SCIENCES LIMITED, priority 2022, dated 2025).

Structures can show the parent of a compound that is named as a salt. Where two headings read alike, the source gives them in different places.

Assay [1] addresses T1, cloned human 5-HT1A receptor (Homo sapiens, UniProt P08908).
T1 construct: expressed in transfected cells; host or cells: HEK293-EBNA
T1 sequence (P08908 1-422): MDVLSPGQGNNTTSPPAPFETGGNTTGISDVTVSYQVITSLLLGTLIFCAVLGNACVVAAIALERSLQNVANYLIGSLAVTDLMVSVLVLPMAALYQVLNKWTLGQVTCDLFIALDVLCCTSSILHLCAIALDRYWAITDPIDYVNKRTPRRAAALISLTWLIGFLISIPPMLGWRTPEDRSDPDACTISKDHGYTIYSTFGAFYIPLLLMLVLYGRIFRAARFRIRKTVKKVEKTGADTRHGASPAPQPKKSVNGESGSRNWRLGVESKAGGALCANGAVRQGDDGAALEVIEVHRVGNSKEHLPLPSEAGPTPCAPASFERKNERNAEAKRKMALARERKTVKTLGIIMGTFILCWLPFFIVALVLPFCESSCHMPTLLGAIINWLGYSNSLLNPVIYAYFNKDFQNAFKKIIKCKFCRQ
Briefly: Determination of Ki at 5-HT1A receptor (radioligand binding, [3H]-8-Hydroxy DPAT). To be noted: HEK293-EBNA recombinant cells; [3H]-8-Hydroxy DPAT 0.8 nM; read-out: Ki h5-HT1A. As for the experimental part: (§1) Compounds were tested according to the following procedure.
• Receptor source: Recombinant mammalian cells (HEK293-EBNA) • Radioligand: [^3H]-8-Hydroxy DPAT (200 Ci/mmol) • Final ligand concentration: 0.8 nM • Non-specific determinant: 0.1 mM U92016A • Reference compound: U92016A • Positive control: U92016A Incubation Conditions:
Reactions were carried out in buffer with pH 7.4 containing 50 mM Tris-HCl, 0.5 mM EDTA, 10 mM MgSO4, 0.1% Ascorbic acid for 2 h at r.t. The reaction was terminated by rapid vacuum filtration onto the glass fiber filters. Radioactivity trapped onto the filters was determined and compared to the control values in order to ascertain any interactions of the test compound(s) with cloned human 5-HT1A receptor binding site.

Assay [2] deals with T2, cloned human 5-HT2A receptor (Homo sapiens, UniProt P28223).
T2 construct: expressed in transfected cells; host or cells: CHO-K1
T2 sequence (P28223 whole entry): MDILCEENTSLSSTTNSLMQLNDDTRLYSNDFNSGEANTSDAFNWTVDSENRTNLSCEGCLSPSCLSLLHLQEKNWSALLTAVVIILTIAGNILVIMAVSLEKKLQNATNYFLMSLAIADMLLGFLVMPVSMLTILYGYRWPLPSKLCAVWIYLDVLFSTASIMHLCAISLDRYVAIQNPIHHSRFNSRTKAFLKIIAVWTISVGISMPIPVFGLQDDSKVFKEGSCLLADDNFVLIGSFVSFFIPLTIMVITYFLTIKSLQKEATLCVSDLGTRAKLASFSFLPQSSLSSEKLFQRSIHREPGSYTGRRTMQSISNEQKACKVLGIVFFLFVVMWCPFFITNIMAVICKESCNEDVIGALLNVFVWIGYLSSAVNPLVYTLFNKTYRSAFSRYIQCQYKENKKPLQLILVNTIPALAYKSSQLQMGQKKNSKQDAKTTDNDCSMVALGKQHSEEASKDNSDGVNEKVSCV
Briefly: Determination of Ki at 5-HT2A receptor (radioligand binding, [3H]-Ketanserine). To be noted: CHO-K1 recombinant cells; [3H]-Ketanserine 1.25 nM; read-out: Ki h5-HT2A. How it is done:
as §1
• Receptor source: Recombinant mammalian cells (CHO-K1) • Radioligand: [^3H]-Ketanserine (41.9 Ci/mmol) • Final ligand concentration: 1.25 nM • Non-specific determinant: 0.1 mM 1-Napthyl piperazine (1-NP) • Reference compound: 1-Napthyl piperazine (1-NP) • Positive control: 1-Napthyl piperazine (1-NP) Incubation Conditions:
Reactions were carried out in buffer with pH 7.4 containing 50 mM Tris-HCl, 4 mM CaCl2), 0.1% Ascorbic acid for 1 h at r.t. The reaction was terminated by rapid vacuum filtration onto the glass fiber filters. Radioactivity trapped onto the filters was determined and compared to the control values in order to ascertain any interactions of the test compound(s) with cloned human 5-HT2A receptor binding site.

Assay [3] deals with cloned human SERT receptor (Homo sapiens, UniProt P31645). Briefly: Determination of Ki at SERT receptor (SPA binding, [3H]-Citalopram). To be noted: HEK293 recombinant cells, [3H]-Citalopram 2 nM, read-out: Ki hSERT. As for the experimental part: as §1
cloned human SERT receptor, sequence (P31645 whole entry): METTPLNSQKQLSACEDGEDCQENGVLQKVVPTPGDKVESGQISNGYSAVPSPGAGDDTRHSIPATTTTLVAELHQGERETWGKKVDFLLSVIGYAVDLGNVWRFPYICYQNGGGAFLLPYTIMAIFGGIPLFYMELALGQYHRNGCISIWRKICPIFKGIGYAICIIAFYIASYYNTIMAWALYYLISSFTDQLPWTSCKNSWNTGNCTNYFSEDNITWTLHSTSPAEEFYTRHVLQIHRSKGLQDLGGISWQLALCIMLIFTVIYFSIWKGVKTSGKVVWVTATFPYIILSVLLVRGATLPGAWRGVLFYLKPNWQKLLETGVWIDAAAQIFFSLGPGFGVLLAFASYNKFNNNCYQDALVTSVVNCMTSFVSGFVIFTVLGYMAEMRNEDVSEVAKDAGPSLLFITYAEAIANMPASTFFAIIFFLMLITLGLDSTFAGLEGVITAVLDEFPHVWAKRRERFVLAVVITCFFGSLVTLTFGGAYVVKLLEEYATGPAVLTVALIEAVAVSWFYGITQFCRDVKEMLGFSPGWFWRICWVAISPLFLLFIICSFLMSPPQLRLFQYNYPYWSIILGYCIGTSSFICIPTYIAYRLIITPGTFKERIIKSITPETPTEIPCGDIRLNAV
• Receptor source: Recombinant mammalian cells (HEK293) • Radioligand: [^3H]-Citalopram (80.8 Ci/mmol) • Final ligand concentration: 2 nM • Non-specific determinant: 0.1 mM Venlafaxine • Reference compound: Venlafaxine • Positive control: Venlafaxine Incubation Conditions:
Reactions were carried out in buffer with pH 7.4 containing 50 mM Tris-HCl, 150 mM NaCl, 5 mM KCl and scintillation proximity assay (SPA) beads (0.1 mg/well) for 3 h at r.t. Radioactivity proximal to SPA beads was determined by scintillation proximity assay and compared to the control values in order to ascertain any interactions of the test compound(s) with cloned human SERT receptor binding site.
Reference: Journal of Pharmacology and Experimental Therapeutics, 1987, 242 (1), 364-371.

The target of assay [4] is T3, hD2S (cloned human dopamine D2S receptor) (Homo sapiens, UniProt P14416).
T3 construct: expressed in transfected cells; host or cells: CHO-K1
T3 sequence (P14416 1-414 isoform P14416-2): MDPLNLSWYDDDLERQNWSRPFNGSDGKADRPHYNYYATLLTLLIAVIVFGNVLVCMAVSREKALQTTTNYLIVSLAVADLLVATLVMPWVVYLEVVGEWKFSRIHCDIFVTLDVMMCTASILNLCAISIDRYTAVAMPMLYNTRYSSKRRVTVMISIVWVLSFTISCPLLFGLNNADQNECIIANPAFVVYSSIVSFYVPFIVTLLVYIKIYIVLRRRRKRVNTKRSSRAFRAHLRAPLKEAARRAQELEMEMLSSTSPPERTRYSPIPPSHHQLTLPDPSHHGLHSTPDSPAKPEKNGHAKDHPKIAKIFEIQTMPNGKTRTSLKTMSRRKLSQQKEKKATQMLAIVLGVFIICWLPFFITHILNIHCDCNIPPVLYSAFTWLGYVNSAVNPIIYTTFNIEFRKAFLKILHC
Briefly: Determination of Ki at D2S receptor (radioligand binding, [3H]-Raclopride). To be noted: CHO-K1 recombinant cells; [3H]-Raclopride 4 nM; read-out: Ki hD2S. How it is done: as §1
• Receptor source: Recombinant mammalian cells (CHO-K1) • Radioligand: [^3H]-Raclopride (80.8 Ci/mmol) • Final ligand concentration: 4 nM • Non-specific determinant: 0.1 mM Haloperidol • Reference compound: Haloperidol • Positive control: Haloperidol Incubation Conditions:
Reactions were carried out in buffer with pH 7.4 containing 50 mM Tris-HCl, 120 mM NaCl, 5 mM KCl, 5 mM MgCl2, 1 mM EDTA for 2 h at r.t. The reaction was terminated by rapid vacuum filtration onto the glass fiber filters. Radioactivity trapped onto the filters was determined and compared to the control values in order to ascertain any interactions of the test compound(s) with cloned human dopamine […] receptor binding site.

As usually defined, the Ki is the equilibrium dissociation constant of an inhibitor or competing ligand from its target. Consider `O=C1C[C@@H]2CCCCN2C(=O)N1CCCCN1CCC(c2noc3cc(F)ccc23)CC1` [Example 13, 2-{4-[4-(6-Fluoro-benzo[d]isoxazol-3-yl)-piperidin-1-yl]-butyl}-hexahydro-pyrido[1,2-c]pyrimidine-1,3-dione], for which the inhibition constant Ki amounted to 14.9 nM in assay [1], 2.5 nM in assay [2], 1.63 µM in assay [3] and 2.5 nM in assay [4].
Turning to `O=C(OCc1ccccc1)N1CCN2C(=O)N(CCCCN3CCN(c4nsc5ccccc45)CC3)C(=O)C[C@@H]2C1` [Example 19, 7-[4-(4-Benzo[d]isothiazol-3-yl-piperazin-1-yl)-butyl]-6,8-dioxo-octahydro-pyrazino[1,2-c]pyrimidine-2-carboxylic acid benzyl ester], the inhibition constant Ki amounted to 1.1 nM in assay [1], 0.8 nM in assay [2], 0.126 µM in assay [3] and 3.2 nM in assay [4].
On to `O=C1C[C@@H]2CCCN2C(=O)N1CCCN1CCC(c2noc3cc(F)ccc23)CC1` [Example 24, 2-{3-[4-(6-Fluoro-benzo[d]isoxazol-3-yl)-piperidin-1-yl]-propyl}-tetrahydro-pyrrolo[1,2-c]pyrimidine-1,3-dione], for which the inhibitory constant (Ki) was 1690 nM in assay [1], 7.1 nM in assay [2], more than 10 µM in assay [3] (cells printed in μM) and 103 nM in assay [4].
`COc1ccc2[nH]cc(C3CCN(CCCCN4C(=O)C[C@@H]5CCCCN5C4=O)CC3)c2c1` [Example 16, 2-{4-[4-(5-Methoxy-1H-indol-3-yl)-piperidin-1-yl]-butyl}-hexahydro-pyrido[1,2-c]pyrimidine-1,3-dione]: the Ki in assay [1] was 0.6 nM; in assay [2], 1210 nM; in assay [3], 0.427 µM; in assay [4], 59.1 nM.
For `O=C1C[C@@H]2CCCN2C(=O)N1CCCN1CCN(c2nsc3ccccc23)CC1` [Example 23, 2-[3-(4-benzo[d]isothiazol-3-yl-piperazin-1-yl)-propyl]tetrahydro-pyrrolo[1,2-c]pyrimidine-1,3-dione], in that order: 21.4 nM, 5.3 nM, 0.918 µM and 22.3 nM.
In the case of `COC(=O)N1CCN2C(=O)N(CCCCN3CCC(c4noc5cc(F)ccc45)CC3)C(=O)C[C@@H]2C1` [Example 35, 7-{4-[4-(6-Fluoro-benzo[d]isoxazol-3-yl)-piperidin-1-yl]-butyl}-6,8-dioxo-octahydro-pyrazino[1,2-c]pyrimidine-2-carboxylic acid methyl ester], the inhibition constant Ki is 45.7 nM in assay [1], 4.8 nM in assay [2], 0.975 µM in assay [3] and 4.7 nM in assay [4].
The like results for `O=C1C[C@@H]2CCCN2C(=O)N1CCCN1CCC(c2c[nH]c3ccc(F)cc23)CC1` [Example 25, 2-{3-[4-(5-Fluoro-1H-indol-3-yl)-piperidin-1-yl]-propyl}-tetrahydro-pyrrolo[1,2-c]pyrimidine-1,3-dione] were, in that order, 58.6 nM, 195 nM, 0.298 µM and 23.8 nM.
Turning to `CC(=O)N1CCN2C(=O)N(CCCCN3CCN(c4nsc5ccccc45)CC3)C(=O)C[C@@H]2C1` [Example 38, 2-Acetyl-7-[4-(4-benzo[d]isothiazol-3-yl-piperazin-1-yl)-butyl]-hexahydro-pyrazino[1,2-c]pyrimidine-6,8-dione fumarate], the inhibition constant (Ki) in assay [2] came out at 2.2 nM; in assay [3] it was 0.953 µM; in assay [4] it was 4.5 nM.
The like results for `O=C1C[C@H]2COCCN2C(=O)N1C[C@H]1CCCC[C@H]1CN1CCN(c2nsc3ccccc23)CC1` [Example 30, 7-[2-(4-Benzo[d]isothiazol-3-yl-piperazin-1-ylmethyl)-cyclohexylmethyl]-tetrahydro-pyrimido[6,1-c][1,4]oxazine-6,8-dione] were, in that order, 8.5 nM, 9.35 µM and 0.6 nM.
